This is an account of results in patent publication US10034886B2, “GLP-1 receptor modulators” (Celgene International II SÀRL, priority 2014, dated 2018).

The EC50 is the midpoint of the concentration-response curve.

T1 sequence (P43220 24-463): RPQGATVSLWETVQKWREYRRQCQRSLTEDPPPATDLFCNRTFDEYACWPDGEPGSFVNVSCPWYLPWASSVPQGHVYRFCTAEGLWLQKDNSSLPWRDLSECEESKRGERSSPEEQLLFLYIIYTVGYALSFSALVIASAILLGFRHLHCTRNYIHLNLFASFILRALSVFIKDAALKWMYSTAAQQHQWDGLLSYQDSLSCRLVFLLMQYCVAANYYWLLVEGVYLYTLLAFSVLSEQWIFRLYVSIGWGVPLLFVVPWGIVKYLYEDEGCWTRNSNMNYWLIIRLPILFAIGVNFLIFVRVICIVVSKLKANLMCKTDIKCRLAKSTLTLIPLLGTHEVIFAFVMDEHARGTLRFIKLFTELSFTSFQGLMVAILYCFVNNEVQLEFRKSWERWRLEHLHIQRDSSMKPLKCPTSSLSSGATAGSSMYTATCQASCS
T1 sequence (P01275 100-127 partner limits assumed): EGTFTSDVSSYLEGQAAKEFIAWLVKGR

This assay addresses T1, GLP-1R (Homo sapiens, UniProt P43220).
T1 construct: host or cells: GLP-1R CRE-bla CHO-K1 cells
The assay is described as follows: EC20 GLP-1(9-36) PAM cAMP assay: dose response of compound in the presence of fixed concentration of GLP-1(9-36). The format is cell-based. Particulars: dose response of compound in presence of fixed concentration of GLP-1(9-36), GLP-1R CRE-bla CHO-K1 cells, read-out: EC20 GLP-1(9-36) PAM EC50. The essentials:
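Positive allosteric modulation read as cAMP accumulation: compound titrations (12 points) combined with an EC20 level of GLP-1(9-36) on CHO-K1 GLP-1R CRE-bla cells, IBMX present, 30 min, 37 °C, pH 7.4 buffer. Luminescence converted to cAMP via standards; non-linear fit gave EC50 and Emax.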
(In general: Changes in cAMP serve as a functional read-out for many G protein-coupled receptors.)
`CCCCCCCOc1ccc(-c2cnc(-c3ccc(C[C@H](NC(=O)c4ccc(C(C)(C)C)cc4)C(=O)N[C@@H](CC(=O)NCCN(C)C)C(=O)O)cc3)nc2)cc1` [Compound 485]: the EC50 was in the range of 5000 to 10000 nM.

With `CCCCCCCOc1ccc(-c2cnc(-c3ccc(C[C@H](NC(=O)c4ccc(C(C)(C)C)s4)C(=O)NCC(=O)NCC(=O)O)cc3)nc2)cc1` [Compound 486], the EC50 was less than 800 nM.

With `CCCCCCCOc1ccc(-c2cnc(-c3ccc(C[C@H](NC(=O)c4ccc(C(C)(C)C)s4)C(=O)NCC(=O)NCCC(=O)O)cc3)nc2)cc1` [Compound 487], the EC50 is less than 800 nM.

As to `CCCCCCCOc1ccc(-c2cnc(-c3ccc(C[C@H](NC(=O)c4ccc(C(C)(C)C)cc4)C(=O)NC(C(=O)O)c4nc(C)oc4C)cc3)nc2)cc1` (stereo partly drawn) [Compound 488], the EC50 was 800 to 2500 nM.

Regarding `CCCCCOc1ccc(-c2cnc(-c3ccc(C[C@H](NC(=O)c4ccc(C(C)(C)C)cc4)C(=O)NCCC(=O)O)cc3)nc2)cc1` [Compound 489], the EC50 was in the range of 800 to 2500 nM.

In the case of `CCCCCCOc1ccc(-c2cnc(-c3ccc(C[C@H](NC(=O)c4ccc(C(C)(C)C)cc4)C(=O)NCCC(=O)O)cc3)nc2)cc1` [Compound 490], the EC50 lay in the range of 800 to 2500 nM.

`CCCCCCCOc1ccc(-c2cnc(-c3ccc(C[C@H](NC(=O)c4ccc(C(C)(C)C)cc4)C(=O)N4C[C@H](O)C[C@H]4C(=O)O)cc3)nc2)cc1` [Compound 491]: the EC50 was less than 800 nM.

In the case of `CCCCCCCOc1ccc(-c2cnc(-c3ccc(C[C@H](NC(=O)c4ccc(C(C)(C)C)cc4)C(=O)N[C@@H](CCCCN)C(=O)O)cc3)nc2)cc1` [Compound 492], the EC50 is 5000 to 10000 nM.

`CCCCCCCOc1ccc(-c2cnc(-c3ccc(C[C@H](NC(=O)c4ccc(C(C)(C)C)s4)C(=O)N4CCC[C@H]4C(=O)NCC(=O)O)cc3)nc2)cc1` [Compound 493]: the EC50 is less than 800 nM.

For `CCCCCCCOc1ccc(-c2cnc(-c3ccc(C[C@H](NC(=O)c4ccc(C(C)(C)C)s4)C(=O)N4CCC[C@H]4C(=O)NCCC(=O)O)cc3)nc2)cc1` [Compound 494], the EC50 is less than 800 nM.

Turning to `CCCCCCCOc1ccc(-c2cnc(-c3ccc(C[C@H](NC(=O)c4ccc(C(C)(C)C)s4)C(=O)N4CCC[C@H]4C(=O)NS(C)(=O)=O)cc3)nc2)cc1` [Compound 495], the EC50 was less than 800 nM.

With `CCCCCCCOc1ccc(-c2cnc(-c3ccc(C[C@H](NC(=O)c4ccc(C(C)(C)C)s4)C(=O)N4CCC[C@H]4C(=O)NS(=O)(=O)CC(=O)OC)cc3)nc2)cc1` [Compound 496], the EC50 is less than 800 nM.

On to `CCCCCCCOc1ccc(-c2cnc(-c3ccc(C[C@H](NC(=O)c4ccc(C(C)(C)C)s4)C(=O)N4CCC[C@H]4C(=O)N4CCCC4C(=O)O)cc3)nc2)cc1` (stereo partly drawn) [Compound 497], for which the EC50 was less than 800 nM.

With `CCCCCCCOc1ccc(-c2cnc(-c3ccc(C[C@H](NC(=O)c4ccc(C(C)(C)C)cc4)C(=O)N[C@H](CC)C(=O)O)cc3)nc2)cc1` [Compound 498], the EC50 is 800 to 2500 nM.

In the case of `CCCCCCCOc1ccc(-c2cnc(-c3ccc(C[C@H](NC(=O)c4ccc(C(C)(C)C)cc4)C(=O)N[C@@H](CC)C(=O)O)cc3)nc2)cc1` [Compound 499], the EC50 is less than 800 nM.

For `CCCCCCCOc1ccc(-c2cnc(-c3ccc(C[C@H](NC(=O)c4ccc(C(C)(C)C)s4)C(=O)N4CCC[C@H]4C(=O)N4CC[C@@H](C(=O)O)C4)cc3)nc2)cc1` [Compound 500], the EC50 was in the range of 800 to 2500 nM.

Take `CCCCCCCOc1ccc(-c2cnc(-c3ccc(C[C@H](NC(=O)c4ccc(C(C)(C)C)s4)C(=O)NC(C(=O)O)c4cccc(S(C)(=O)=O)c4)cc3)nc2)cc1` (stereo partly drawn) [Compound 501]: the EC50 was less than 800 nM.

With `CCCCCCCOc1ccc(-c2cnc(-c3ccc(C[C@H](NC(=O)c4ccc(C(C)(C)C)cc4)C(=O)N[C@@H](CC(=O)OCc4ccccc4)C(=O)O)cc3)nc2)cc1` [Compound 502, (S)-4-(benzyloxy)-2-((S)-2-(4-(tert-butyl)benzamido)-3-(4-(5-(4-(heptyloxy)phenyl)pyrimidin-2-yl)phenyl)propanamido)-4-oxobutanoic acid], the EC50 is less than 800 nM.

With `CCCCCCCOc1ccc(-c2cnc(-c3ccc(C[C@H](NC(=O)c4ccc(C(C)(C)C)cc4)C(=O)N[C@@H](CC(=O)O)C(=O)N(C)C)cc3)nc2)cc1` [Compound 503], the EC50 fell in the range of 800 to 2500 nM.

For `CCCCCCCOc1ccc(-c2cnc(-c3ccc(C[C@H](NC(=O)c4ccc(C(C)(C)C)cc4)C(=O)N[C@@H](CC(=O)O)C(=O)N4CCCCC4)cc3)nc2)cc1` [Compound 504], the EC50 was in the range of 2500 to 5000 nM.

As for `CCCCCCCOc1ccc(-c2cnc(-c3ccc(C[C@H](NC(=O)c4ccc(C(C)(C)C)cc4)C(=O)N[C@@H](CC(=O)O)C(=O)N(C)CCN(C)C)cc3)nc2)cc1` [Compound 505], the EC50 was in the range of 800 to 2500 nM.

Take `CCCCCCCOc1ccc(-c2cnc(-c3ccc(C[C@H](NC(=O)c4ccc(C(C)(C)C)cc4)C(=O)N[C@@H](CC(=O)O)C(=O)NCCOC)cc3)nc2)cc1` [Compound 506]: the EC50 fell in the range of 800 to 2500 nM.

Take `CCCCCCCOc1ccc(-c2cnc(-c3ccc(C[C@H](NC(=O)c4ccc(C(C)(C)C)cc4)C(=O)N[C@@H](CC(=O)O)C(=O)N4CCOCC4)cc3)nc2)cc1` [Compound 507]: the EC50 was 800 to 2500 nM.

For the compound `CCCCCCCOc1ccc(-c2cnc(-c3ccc(C[C@H](NC(=O)c4ccc(C(C)(C)C)cc4)C(=O)N[C@@H](CC(=O)NCCO)C(=O)O)cc3)nc2)cc1` [Compound 508], the EC50 was less than 800 nM.

Turning to `CCCCCCCOc1ccc(-c2cnc(-c3ccc(C[C@H](NC(=O)c4ccc(C(C)(C)C)cc4)C(=O)N[C@@H](CC(=O)N(C)CCN)C(=O)O)cc3)nc2)cc1` [Compound 509], the EC50 was 800 to 2500 nM.

Regarding `CCCCCCCOc1ccc(-c2cnc(-c3ccc(C[C@H](NC(=O)c4ccc(C(C)(C)C)cc4)C(=O)N[C@@H](CC(=O)Nc4nnn[nH]4)C(=O)O)cc3)nc2)cc1` [Compound 510], the EC50 was in the range of 2500 to 5000 nM.

On to `CCCCCCCOc1ccc(-c2cnc(-c3ccc(C[C@H](NC(=O)c4ccc(C(C)(C)C)cc4)C(=O)N[C@@H](CC(=O)NS(C)(=O)=O)C(=O)O)cc3)nc2)cc1` [Compound 511], for which the concentration giving a half-maximal response (EC50) fell in the range of 800 to 2500 nM.

As to `CCCCCCCOc1ccc(-c2cnc(-c3ccc(C[C@H](NC(=O)c4ccc(C(C)(C)C)s4)C(=O)N[C@@H](CC(=O)NC)C(=O)O)cc3)nc2)cc1` [Compound 512], the EC50 is less than 800 nM.

For the compound `CCCCCCCOc1ccc(-c2cnc(-c3ccc(C[C@H](NC(=O)c4ccc(C(C)(C)C)s4)C(=O)N[C@@H](CC(=O)N(C)C)C(=O)O)cc3)nc2)cc1` [Compound 513], the EC50 was less than 800 nM.

With `CCCCCCCOc1ccc(-c2cnc(-c3ccc(C[C@H](NC(=O)c4ccc(C(C)(C)C)s4)C(=O)N[C@@H](CC(=O)NCC(=O)O)C(=O)O)cc3)nc2)cc1` [Compound 515], the EC50 is less than 800 nM.

With `CCCCCCCOc1ccc(-c2cnc(-c3ccc(C[C@H](NC(=O)c4ccc(C(C)(C)C)s4)C(=O)N[C@@H](CC(=O)N[C@@H](C)C(=O)O)C(=O)O)cc3)nc2)cc1` [Compound 516], the EC50 was less than 800 nM.

Regarding `CCCCCCCOc1ccc(-c2cnc(-c3ccc(C[C@H](NC(=O)c4ccc(C(C)(C)C)s4)C(=O)N[C@@H](CC(=O)N[C@@H](CO)C(=O)O)C(=O)O)cc3)nc2)cc1` [Compound 517], the EC50 is less than 800 nM.

For the compound `CCCCCCCOc1ccc(-c2cnc(-c3ccc(C[C@H](NC(=O)c4ccc(C(C)(C)C)s4)C(=O)N[C@@H](CC(=O)NCC(N)=O)C(=O)O)cc3)nc2)cc1` [Compound 518], the concentration giving a half-maximal response (EC50) was in the range of 800 to 2500 nM.
